Reference: PubChem BioAssay AID179 (DTP/NCI, 2004)
Calls of active or inactive are those of the source.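 Rule for the calls: active = compounds giving half or more protection of infected cells from virus-caused growth loss, again on retest; inactive = the rest.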 Where a SMILES comes first, the peptide text is derived from it.

System: CEM cells HIV-1 protection, formazan growth assay
Assay: NCI AIDS Antiviral Assay
Settings: for IC50: measured here: growth of uninfected CEM cells
Summary of the method: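 Five concentrations of each compound were applied to infected and uninfected human CEM cells. Protection from HIV-1 was judged from growth measured with a soluble formazan assay.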

SMILES	EC50 [µM]	IC50 [µM]	outcome
CCC1C[N+]23CCc4c([nH]c5ccccc45)C2CC1CC3 (stereo not given)	> 57.5	> 57.5	
O=C(C#Cc1ccccc1)Nc1ccccc1CC(c1c[nH]c2ccccc12)c1c[nH]c2ccccc12	> 26.3	5.25	
CCOC1c2cc(C(C)C)c(O)c(O)c2[C@@]23CCCC(C)(C)C2C1OC3=O (stereo not given in full)	> 200	9.33	
CCCCC(=O)[O-].N.N.N.N.N.[Co+3].[O-][Cl+3]([O-])([O-])[O-]			inactive
N#CC(C#N)=Cc1ccccc1O	> 200	40.7	
Cc1ccc(N(C(=O)CC(=O)N/N=C/c2ccccc2O)C(=O)c2ccccc2)cc1			inactive
NN=C(N)N	> 200	> 200	
CC(=O)Nc1ccc2c(c1)C(c1ccccc1)=NCC(=O)N2	> 200	55	
Cn1c2ccccc2c2cc(-c3ccccc3)c3c(c21)C(=O)C=CC3=O	> 77.6	2.57	
O=S(=O)(O)c1ccc(N=Nc2ccc(N=Nc3c(O)c(S(=O)(=O)O)cc4cc(S(=O)(=O)O)ccc34)cc2)cc1			inactive
Nc1c(-c2ccccc2)oc2ccccc2c1=O	> 200	> 200	
CCCCCCc1cc(S(=O)(=O)O)c(O)cc1O	> 200	> 200	
CCC[CH2][Sn]1([CH2]CCC)[O]C(=O)c2ccc(C)cc2[O]1			inactive
COc1cc(CNc2ccc(C(C)C)cc2)cc(OC)c1OC	> 74.1	31.6	
C[N+]12CN3CN(C1)S(=O)(=O)N(C3)C2			inactive
CCOC(=S)NP(=O)(NC(=S)OCC)NC(=S)OCC	> 200	> 200	
C=C1c2nc3ccccc3n2C=C(c2ccc(C)cc2)N1c1ccc(C)cc1	> 200	26.9	
C[C@H](N)C(O)C/C=C\C/C=C\C/C=C\C/C=C\C/C=C\C/C=C\CCCCCCC(O)[C@H](C)N (stereo not given in full)			inactive
Fc1cccc2c(=S)cn[nH]c12	> 200	186	
COc1cc(/C=C2\CCC(C)C3=C2N=c2s/c(=C/c4ccc(Cl)cc4)c(=O)n2C3c2cc(OC)c(OC)c(OC)c2)cc(OC)c1OC (stereo not given)	> 200	102	
C[C@]12CC[C@H](O)CC1=CC[C@@H]1C2CC[C@@]2(C)C1CC[C@@H]2c1nc(-c2ccccc2)cs1 (stereo not given in full)	> 15.5	> 15.5	
O=C(O)CC(SSCc1ccccc1)C(=O)O (stereo not given)	> 200	> 200	

SMILES	EC50 [µM]	IC50 [µM]	outcome
CC(=O)Oc1c(OC(C)C)cc(=O)n2ccsc12	> 200	102	
CCn1cc(C(=O)O)c(=O)c2cccc(OC)c21			inactive
CNC(=O)c1ccccc1CNC(=S)Nc1cccc(C)c1	> 200	> 200	
O=C1OCCOCCOCCOC(=O)c2ccccc2SSc2ccccc21	> 200	33.9	
NC(=S)Nc1cc(Cl)ccc1Cl	> 32.4	> 32.4	
NS(=O)(=O)c1ccc(NC(=O)COC(=O)c2cccc3c(=O)c4ccccc4[nH]c23)cc1			inactive
COc1ccc(-c2c(C)c(C)[nH]c(=O)c2C(=O)O)c(OCc2ccccc2)c1OC			inactive
N#Cc1ccc(C(=O)/C=C/c2ccc(O)c(O)c2)cc1	> 200	10.2	
NC1=NCC(CN2CCCCC2)O1 (stereo not given)	> 200	> 200	
CCC12CC[C@H](C#N)N3CCc4c(n(c5ccccc45)C(=O)C1)C32 (stereo not given in full)			inactive
CCOC(=O)CCCc1cc(=O)c2c(C)c3[nH]c4ccc(Cl)cc4c3c(C)c2[nH]1	> 200	34.7	
CCCCCCCSCc1nc2ccccc2c(C)[n+]1[O-]	> 66.1	50.1	
CCC(C)C(NC(=O)C(N)CCC(=O)O)C(=O)NC(CCCCN)C(=O)NCC(=O)NC(C(=O)NC(C(=O)NC(CC(N)=O)C(=O)NC(CC(C)C)C(=O)NCC(=O)NC(CCCCN)C(=O)O)C(C)O)C(C)O (stereo not given) (H-EIKGTTNLGK-OH; configuration not given here)			inactive
COCC1=C(NNC(=O)c2ccncc2)[C@@]2(C)C(=CC1=O)Oc1c(C(C)=O)c(O)c(C)c(O)c12	> 200	47.9	
CC(C)(C)c1cc2c(OP(c3ccccc3)c3ccccc3)c(c1)Cc1cc(C(C)(C)C)cc(c1OP(c1ccccc1)c1ccccc1)Cc1cc(C(C)(C)C)cc(c1OP(c1ccccc1)c1ccccc1)Cc1cc(C(C)(C)C)cc(c1OP(c1ccccc1)c1ccccc1)C2	> 1.05	> 1.05	
CC(=O)C(C)[P+](c1ccccc1)(c1ccccc1)c1ccccc1 (stereo not given)	> 200	39.8	
COc1ccc([C@H]2c3cc4c(cc3OC(O)(CO)[C@H]2C(=O)O)OCO4)c(OC)c1 (stereo not given in full) (tested in a mixture with another compound)			inactive
O=C(Cn1ccnc1[N+](=O)[O-])NCCO			inactive
CN(C)c1ccc(/C=N/N(Cc2ccccc2)c2ccccc2)cc1	> 6.03	> 6.03	
Cc1nc2sc(C(=O)c3ccc(Cl)cc3)c(N)c2c(-c2ccccc2Cl)c1C(=O)Nc1ccccc1	> 200	3.02	
Cc1ccc(S(=O)(=O)NCCSCCNS(=O)(=O)c2ccc(C)cc2)cc1	> 575	> 575	
O=c1[nH]c(Br)nc2n[nH]nc12	> 200	4.9	

SMILES	EC50 [µM]	IC50 [µM]	outcome
Cc1c(O)ccc(N=O)c1O	> 200	123	
O=S1OC2(c3ccccc3-c3ccccc32)c2ccccc21 (stereo not given)			inactive
Clc1ccccc1CN1COc2c(ccc3cccnc23)C1	> 30.9	1.58	
COc1cc2c(cc1OC(=O)CC(C)O)C1C(OC2=O)C(OC(C)=O)C=C2CCN(C)[C@H]21 (stereo not given in full)	> 56.2	> 56.2	
Cc1ccc2ccccc2c1CSc1ncnc2c1ncn2C1OC(CO)C(O)C1O (stereo not given)	> 200	24.5	
CN(/N=C/c1ccnc2ccccc12)c1c([N+](=O)[O-])cc([N+](=O)[O-])cc1[N+](=O)[O-]	> 47.9	8.71	
CNC(=O)CNC(=O)C(NC(=O)CNC(=O)C1CCCN1C(=O)C(C)NC(=O)C(NC(C)=O)C(C)C)C(C)C (stereo not given) (Ac-VAPGVG-NHMe; configuration not given here)	> 200	> 200	
CCc1cccc(C(C)(C)C)c1NC(=S)/N=C/C(C(=O)c1ccccc1)=C(\O)c1ccccc1	> 200	51.3	
COc1ccc2nc3ccccc3c(NCCCN(C)CCCl)c2c1	> 200	0.501	
CCCCN=C(c1ccccc1)N1CCOCC1	> 200	> 200	
COC(=O)c1ccccc1CC(Cc1ccc2c(c1)CCC2)C(=O)OC (stereo not given)	> 200	56.2	
CC1CCC2N(C1)CC1C3(O)CC45OC6(O)C(O)CCC4(C)C6CCC5C3(O)CC(O)C1(O)C2(C)O (stereo not given)	> 490	> 490	
C[n+]1c2ccccc2c(/C=N\NS(=O)(=O)c2ccc(O)c(C(=O)O)c2)c2ccccc21			inactive
CCC[CH2][Sn]([CH2]CCC)([S]CCS(=O)(=O)O)[S]CCS(=O)(=O)O	> 200	115	
O=c1nc2c(c(-c3cccc(Cl)c3)[nH]1)COC/C2=C\c1cccc(Cl)c1			inactive
O=C(/C=C/c1ccc(OCC(=O)N2CCN(c3ccccc3)CC2)cc1)c1ccc(Cl)cc1	> 29.5	> 29.5	
CC(=O)OCSc1ncnc2c1ncn2CN1CCOCC1	> 776	0.575	
CC(C)=CC1CC(C)C2(CCC3(C)CC4C5/C(=C\CC32)C(=O)OC5CC4(C)O)O1 (stereo not given)	> 2	0.398	
Nc1cc(Cl)ccc1N1C(=O)CCC1=O	166	> 200	
COc1cc2c(SCCN(C)C)nc3ccccc3c2c2ccccc12			inactive
COc1cccc(C2CO2)c1 (stereo not given)	> 200	151	
O=C(/C=C/c1c(O)ccc2ccccc12)c1ccccc1	> 182	> 100	

SMILES	EC50 [µM]	IC50 [µM]	outcome
O=C1N=CC2(N=N2)C(=O)N1	> 200	15.5	
O=S(=O)(O)C1CC2NC3C4CCCC(S(=O)(=O)O)C4C(Nc4ccccc4)CC3N(c3ccccc3)C2CC1Nc1ccccc1 (stereo not given)	56.2	> 100	
CC12CCC3[C@@H](CC3(C)C)C(O)(CCC1=O)C2 (stereo not given in full)	> 200	> 200	
N#CN(CS(=O)(=O)O)C(=N)N	> 200	> 200	
CC(C)C[P+](c1ccccc1)(c1ccccc1)c1ccccc1	> 20	2.19	
CCOC(=O)C12CCC(=O)C=C1[C@@H](C)C(=O)CC2 (stereo not given in full)	> 1000	363	
CCCCCCCCCc1cc(O)c(O)cc1CCCCCCCCC	> 100	47.9	
COc1cccc(CC2Cc3ccccc3CC(=O)N2)c1 (stereo not given)	> 200	38	
CCCCCCCCCC/C=C/CC(=O)SCCNC(=O)CCNC(=O)[C@@H](O)C(C)(C)COP(=O)(O)OP(=O)(O)OCC1OC(n2cnc3c(N)ncnc32)C(O)C1OP(=O)(O)O (stereo not given in full)			inactive
O=C(Cc1ccccc1)Nc1ccccc1Cl	> 204	> 204	
CC(=O)NC1C(OCc2ccccc2)OC(CO)C(O)C1OC(C)C(=O)NC(C)C(=O)N[C@H](CCC(=O)OCCNCCCNc1ccc([N+](=O)[O-])c2[nH]c3ccccc3c(=O)c12)C(N)=O (stereo not given in full)	> 200	60.3	
CP(C)(=S)P(C)(C)=S	> 200	110	
CC1=Nc2cc(N)nn2C(=O)C1	> 200	> 200	
CN(C)c1cc[n+](-c2c([O-])c3ccccc3n(-c3ccccc3)c2=O)cc1	> 200	195	
N=c1oc2ccc(Cl)cc2cc1C(=O)NCc1ccccc1	> 200		
O=[N+]([O-])C1=Cc2cc(Cl)ccc2OC1c1cccc2ccccc12 (stereo not given)	> 2	0.977	
C[C@]12CC[C@H](CC=C(c3cc(Cl)c(O)c(C(=O)O)c3)c3cc(Cl)c(O)c(C(=O)O)c3)C[C@@H]1CC[C@@H]1[C@@H]2CC[C@]2(C)[C@@H](CC=C(c3cc(Cl)c(O)c(C(=O)O)c3)c3cc(Cl)c(O)c(C(=O)O)c3)CC[C@@H]12	28.8	45.7	
CC1(C)CN=C(c2ccc3ccccc3c2O)N1	> 200	> 200	
Clc1cc(Cl)cc(N=C/C=C/Nc2cc(Cl)cc(Cl)c2)c1			inactive
